The experiment has as its system DREADDs. Nature of the experiment: [18F]JHU37107 PET in D1-DREADD transgenic mice. Type of experiment: in vivo. Conditions: D1-DREADD mice, 0.1 mg kg-1 IP. The method, then:
[^18F]JHU37107 was prepared via the no-carrier-added ^18F-fluorination using an FDG Nuclear Interface module (Muenster, Germany). Briefly, 4 mg precursor (8-chloro-11-(4-ethylpiperazin-1-yl)-5H-dibenzo[b,e][1,4]diazepin-2-ol) and 8 mg tris(acetonitrile)cyclopentadienylruthenium(II)hexafluorophosphate (STREM, Boston, MA) were dissolved in ethanol (0.3 mL), the solution was heated at 85 °C for 25 min and evaporated to dryness under a stream of argon gas. The residue was dissolved in DMSO (0.5 mL) and acetonitrile (0.5 mL) and the solution was added to a dry complex of [^18F]fluoride and 9 mg 1,3-bis(2,6-di-i-propylphenyl)-2-chloroimidazolium chloride (STREM). The reaction mixture was heated at 130 °C for 30 min, diluted with mixture of 0.5 mL acetonitrile, 0.5 mL water and 0.03 mL TFA and injected onto a semi-preparative HPLC column (Luna C18, 10 micron, 10 mm × 250 mm) and eluted with 23:77 (v:v) acetonitrile:water (0.1% trifluoroacetic acid) at a flow rate of 10 mL min^−1. The radioactive peak corresponding to [^18F]JHU37107 (tR = 9.9 min) was collected in a reservoir containing 50 mL of water and 3 mL aq 8.4% NaHCO3 solution. The diluted product was loaded onto a solid phase extraction cartridge (Waters Oasis HLB plus light) and rinsed with 10 mL sterile saline. The product was eluted with 1000 µL of ethanol through a sterile 0.2 μm filter into a sterile, pyrogen-free vial and 10 mL saline was added through the same filter. The final product [^18F]JHU37107 was then analyzed by analytical HPLC (Luna C18, 10 micron, 4.6 mm × 250 mm; mobile phase 23:77 (v:v) acetonitrile:water (0.1% trifluoroacetic acid), flow rate of 3 mL min^−1; […] .
Total acquisition time was 60 min.

As to `CCN1CCN(C2=Nc3cc(Cl)ccc3Nc3c(F)cccc32)CC1` [JHU37160, 8-Chloro-11-(4-ethylpiperazin-1-yl)-4-fluoro-5H-dibenzo[b,e][1,4]diazepine], the “displacement of [18F]JHU37107 PET signal” value is “displaceable”.

(Values after publication PMC6788984, “High-potency ligands for DREADD imaging and activation in rodents and monkeys” (Nature Communications, 2019).)
